Assays:
Vasopressin V2 = Vasopressin V2 Antagonist Activity in Conscious Hydrated Rats; type: in vivo, rat; details: 10 mg/kg orally, AVP 0.4 μg/kg i.p.; for Osmolality: urine
Description: Two to four rats are used for each compound. One hour later, arginine vasopressin (AVP, antidiuretic hormore, ADH) dissolved in peanut oil is administered at 0.4 μg/kg intraperitoneally. Two rats in each test would not receive arginine vasopressin but only the vehicle (peanut oil) to serve as water-loading control. Twenty minutes later each rat is given 30 mL/kg of deionized water orally by gavage and is placed individually in a metabolic cage equipped with a funnel and a graduated glass cylinder to collect urine for four hours. Urine volume is measured and osmolality analyzed by use of a Fiske One-Ten osmometer (Fiske Assoc., Norwood, Mass., USA). Urinary sodium, potassium, and chloride are analyzed by use of ion-specific electrodes in a Beckman E3 (Electrolyte 3) Analyzer. In the following results, […] and decreased osmolality relative to AVP-control indicates activity.

Vasopressin V1 = Vasopressin V1 Antagonist Activity in Conscious Rats (vasopressin vasopressor response); type: in vivo, rat; details: for Max % Inhibition: vasopressin vasopressor response
Description: Vasopressin V1 Antagonist Activity in Conscious Rats Conscious rats are restrained in a supine position with elastic tape. The area at the base of the tail is locally anesthetized by subcutaneous in filtration with 2% procaine (0.2 ml). Using aseptic technique the ventral caudal tail artery is isolated and a cannula made of PE 10 and 20 (heat-fused) tubing is passed into the lower abdominal aorta. The cannula is secured, heparinized (1000 i.u./cc), sealed and the wound closed with one or two stitches of Dexon 4-0. The caudal vein is also cannulated in the same manner for intravenous drug administration. The duration of the surgery is approximately 5 minutes. Additional local anesthesia (2% procaine or lidocaine) is provided as needed. The animals are placed in plastic restraining cages in an upright position. The cannula is attached to a Statham P23Db pressure transducer and pulsatile blood pressure is recorded. […] Percentage of antagonism by the compound is calculated using the pre-drug vasopressin vasopressor response as 100%. The results of this test on representative compounds of this invention in which the dose, the maximum % inhibition and the time in minutes, are shown in Table III.

oxytocin receptors = target: T1, oxytocin receptors (Rattus norvegicus, UniProt P70536); experiment: Oxytocin Receptor Binding; parameters: species or system rat (female Sprague-Dawley); details: for IC50: 1.0 nM [3H]OT
T1 construct: The uteri are dissected out, cleaned of fat and connective tissues; from tissue; host or cells: uteri of DES-treated female Sprague-Dawley rats
T1 sequence (P70536 1-388): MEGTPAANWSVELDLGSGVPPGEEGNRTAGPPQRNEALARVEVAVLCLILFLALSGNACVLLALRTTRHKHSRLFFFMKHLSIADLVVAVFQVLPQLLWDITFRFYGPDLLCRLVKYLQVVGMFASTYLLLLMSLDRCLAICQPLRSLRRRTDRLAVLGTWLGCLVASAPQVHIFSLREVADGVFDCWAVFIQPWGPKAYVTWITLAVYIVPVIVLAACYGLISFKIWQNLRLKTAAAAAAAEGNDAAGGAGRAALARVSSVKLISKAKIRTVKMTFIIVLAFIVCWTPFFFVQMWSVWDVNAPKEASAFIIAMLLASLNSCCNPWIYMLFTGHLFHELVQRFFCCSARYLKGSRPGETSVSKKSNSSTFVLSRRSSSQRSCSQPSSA
Description: Oxytocin Receptor Binding
Female Sprague-Dawley rats weighing approximately 200-250 g are injected intramuscularly (i.m.) with 0.3 mg/kg of body weight of diethylstilbestrol (DES). The rats are sacrificed 18 hours later under pentobarbital anesthesia. The uteri are dissected out, cleaned of fat and connective tissues and rinsed in 50 ml of normal saline. The tissue pooled from six rats is homogenized in 50 ml of […] Tris.HCl, containing 0.5 mM dithiothreitol and 1.0 mM EDTA, adjusted to pH 7.4, using a polytron at setting 6 with three passes of 10 sec each. The homogenate is passed through two (2) layers of cheesecloth and the filtrate centrifuged at 1000× g for 10 min. The clear supernatant is removed and recentrifuged at 165,000× g for 30 min. The resulting pellet containing the oxytocin receptors is resuspended in 50.0 mM Tris.HCl containing 5.0 mM MgCl2 at pH 7.4, to give a protein concentration of 2.5 mg/ml of tissue suspension. This preparation is used in subsequent binding assays with [^3 H]Oxytocin.
Binding of 3,5-[^3 H]Oxytocin ([^3 H]OT) to its receptors is done in microtiter plates using [^3 H]OT, at various concentrations, in an assay buffer of 50.0 mM Tris.HCl, pH 7.4 and containing 5.0 mM MgCl2, and a mixture of protease inhibitors: BSA, 0.1 mg; aprotinin, 1.0 mg; 1,10-phenanthroline, 2.0 mg; […], 10.0 mg; and PMSF, 0.3 mg per 100 ml of buffer solution. Non-specific binding is determined in the presence of 1.0 uM unlabeled OT. The binding reaction is terminated after 60 min., at 22° C., by rapid filtration through glass fiber filters using a Brandel, cell harvester (Biomedical Research and Development Laboratories,Inc., Gaithersburg, Md.). Competition experiments are conducted at equilibrium using 1.0 nM [^3 H]OT and varying the concentration of the displacing agents. The concentrations of agent displacing 50% of [^3 H]OT at its sites (IC50) are calculated by a computer assisted LUNDON-2 program (LUNDON SOFTWARE INC., Ohio, USA).

[1] = target: T2, Vasopressin V1 receptor subtype in Human Platelet Membranes (Homo sapiens, UniProt P37288); experiment: Binding to Vasopressin V1 receptor subtype in Human Platelet Membranes
T2 construct: tissue Hudson Valley Blood Services, Westchester Medical Center, Valhalla, N.Y; host or cells: human platelets (frozen platelet rich plasma)
Description: Radioligand Binding Experiments with Human Platelet Membranes
(a) Platelet Membrane Preparation
Frozen platelet rich plasma (PRP), (Platelet Source: Hudson Valley Blood Services, Westchester Medical Center, Valhalla, N.Y.) are thawed to room temperature. The tubes containing the PRP are centrifuged at 16,000×g for 10 min. at 4° C. and the supernatant fluid discarded. The platelets resuspended in an equal volume of 50.0 mM Tris.HCl, pH 7.5 containing 120 mM NaCl and 20.0 mM EDTA. The suspension is recentrifuged at 16,000× g for 10 min. This washing step is repeated one more time. The wash discarded and the lysed pellets homogenized in low ionic strength buffer of Tris.HCl, 5.0 mM, pH 7.5 containing 5.0 mM EDTA. The homogenate is centrifuged at 39,000× g for 10 min. The resulting pellet is resuspended in Tris.HCl buffer, 70.0 mM, pH 7.5 and recentrifuged at 39,000× g for 10 min. The final pellet is resuspended in 50.0 mM Tris.HCl buffer pH 7.4 containing 120 mM NaCl and 5.0 mM KCl to give 1.0-2.0 mg protein per ml of suspension.
(b) Binding to Vasopressin V1 receptor subtype in Human Platelet Membranes
In wells of a 96 well format microtiter plate, add 100 μl of 50.0 mM Tris.HCl buffer containing 0.2% BSA and a mixture of protease inhibitors (aprotinin, leupeptin etc.). Then add 20 μl of [^3 H]Ligand (Manning or Arg^8 Vasopressin), to give final concentrations ranging from 0.01 to 10.0 nM. Initiate the binding by adding 80.0 μl of platelet suspension (approx. 100 μg protein). Mix all reagents by pipetting the mixture up and down a few times. Non specific binding is measured in the presence of 1.0 µM of unlabeled ligand (Manning or Arg^8 Vasopressin). Let the mixture stand undisturbed at room temperature for ninety (90) min. Upon this time, rapidly filter off the incubate under vacuum suction over GF/B filters, using a Brandel Harvester. Determine the radioactivity caught on the filter disks by the addition of liquid scintillant and counting in a liquid scintillator.

T2 sequence (P37288 whole entry): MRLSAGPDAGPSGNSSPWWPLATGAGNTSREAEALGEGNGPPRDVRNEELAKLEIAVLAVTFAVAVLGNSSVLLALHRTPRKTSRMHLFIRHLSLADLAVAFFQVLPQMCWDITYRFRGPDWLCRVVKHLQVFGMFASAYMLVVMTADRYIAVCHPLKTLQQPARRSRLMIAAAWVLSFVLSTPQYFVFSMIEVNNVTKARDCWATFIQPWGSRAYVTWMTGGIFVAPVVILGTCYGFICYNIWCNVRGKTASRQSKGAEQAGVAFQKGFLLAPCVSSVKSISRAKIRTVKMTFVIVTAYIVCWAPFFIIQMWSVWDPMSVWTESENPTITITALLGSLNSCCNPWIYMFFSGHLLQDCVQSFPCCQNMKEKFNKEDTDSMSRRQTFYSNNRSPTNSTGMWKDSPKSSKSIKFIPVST

inhibition at 10 µM (oxytocin receptors) [%]	IC50 (oxytocin receptors) [nM]	IC50 [1] [nM]	Structure (SMILES)	Urine Volume (Vasopressin V2) [ml/4 hrs]	Osmolality (Vasopressin V2) [mOsm/kg]	Time (of maximum % inhibition) (Vasopressin V1; 30 mg/kg po) [min]	Max % Inhibition (Vasopressin V1; 30 mg/kg po) [%]	Time (of maximum % inhibition) (Vasopressin V1; 30 mg/kg iv) [min]	Max % Inhibition (Vasopressin V1; 30 mg/kg iv) [%]	Time (of maximum % inhibition) (Vasopressin V1; 10 mg/kg iv) [min]	Max % Inhibition (Vasopressin V1; 10 mg/kg iv) [%]
			O=C(c1ccc(-c2cccs2)cc1)N1Cc2cccn2Cc2ccccc21 [Example 1, 10,11-Dihydro-10-[4-(2-thienyl)benzoyl]-5H-pyrrolo[2,1-c][1,4]benzodiazepine]	5	1148	120	53				
62			O=C(c1ccc(C#Cc2ccccc2)cc1)N1Cc2cccn2Cc2ccccc21 [Example 4, 10,11-Dihydro-10-[4-(phenylethynyl)-5H-pyrrolo[2,1-c]1,4]benzodiazepine]	6.3	1033			90	30		
77	2500		O=C(c1ccc(-c2nccs2)cc1)N1Cc2cccn2Cc2ccccc21 [Example 10, 10,11-Dihydro-10-[4-(2-thiazolyl)benzoyl]-5H-pyrrolo[2,1-c][1,4]benzodiazepine]								
86	1800		Cc1ccc(Sc2ccc(C(=O)N3Cc4cccn4Cc4ccccc43)cc2)cc1 [Example 11]	11	825			300	54		
69			O=C(c1ccc(S(=O)(=O)c2ccccc2)cc1)N1Cc2cccn2Cc2ccccc21 [Example 12]	5.8	1254						
67		21	Cc1ccc(S(=O)(=O)c2ccc(C(=O)N3Cc4cccn4Cc4ccccc43)cc2)cc1 [Example 13, 10,11-Dihydro-10-[4-[(4-methylphenyl)sulfonyl]benzoyl]-5H-pyrrolo[2,1-c][1,4]benzodiazepine]	5.5	1380						
67			C=CCOc1ccc(-c2ccc(C(=O)N3Cc4cccn4Cc4ccccc43)cc2)cc1 [Example 14, 10,11-Dihydro-10-[[4'-(2-propenyloxy)[1,1'-biphenyl]-4-yl]carbonyl]-5H-pyrrolo[2,1-c][1,4]benzodiazepine]	4	1247			90	50		
98	2100		O=C(c1ccc(Sc2ccccc2)cc1)N1Cc2cccn2Cc2ccccc21 [Example 15, 10,11-Dihydro-10-[4-(phenylthio)benzoyl]-5H-pyrrolo[2,1-c][1,4] benzodiazepine]	4	1278						
100	110		O=C(c1ccccc1)c1ccc(C(=O)N2Cc3cccn3Cc3ccccc32)cc1 [Example 16, 10-(4-Benzoylbenzoyl)-10,11-dihydro-5H-pyrrolo[2,1-c][1,4]benzodiazepine]	6	1022					240	67
92	1090		O=C(c1ccc(-c2ccccc2)cc1)N1Cc2cccn2-c2ccccc21 [Example 17, 5-([1,1'-Biphenyl]-4-ylcarbonyl)-4,5-dihydropyrrolo[1,2-a]quinoxaline]	10.3	929			60	63		
100	110	13	CN(C)Cc1ccc2n1Cc1ccccc1N(C(=O)c1ccc(-c3ccccc3)cc1)C2 [Example 20, 10-([1,1'-Biphenyl]-4-ylcarbonyl)-10,11-dihydro-N,N-dimethyl-5H-pyrrolo[2,1-c][1,4]benzodiazepine-3-methanamine]	3.5	1650					240	61

Structure (SMILES)	inhibition at 10 µM (oxytocin receptors) [%]	IC50 (oxytocin receptors) [nM]	IC50 [1] [nM]	Urine Volume (Vasopressin V2) [ml/4 hrs]	Osmolality (Vasopressin V2) [mOsm/kg]	Time (of maximum % inhibition) (Vasopressin V1; 30 mg/kg po) [min]	Max % Inhibition (Vasopressin V1; 30 mg/kg po) [%]	Time (of maximum % inhibition) (Vasopressin V1; 30 mg/kg iv) [min]	Max % Inhibition (Vasopressin V1; 30 mg/kg iv) [%]	Time (of maximum % inhibition) (Vasopressin V1; 10 mg/kg iv) [min]	Max % Inhibition (Vasopressin V1; 10 mg/kg iv) [%]
Cc1ccc(Oc2ccc(C(=O)N3Cc4cccn4Cc4ccccc43)cc2)cc1 [Example 18, 10,11-Dihydro-10-[4-(4-methylphenoxy)benzoyl]-5H-pyrrolo[2,1-c][1,4]benzodiazepine]	99	120	280	5.3	919			300	36		

From patent US5521173A, “Tricyclic benzazepine vasopressin antagonists” (American Home Products Corporation, priority 1995, dated 1996)
